Measurements as given in ChEMBL document CHEMBL1201862, “PubChem BioAssay data set” (2004).
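Method: 48-hour compound exposure of cells in 96-well plates, five concentrations, linear interpolation of endpoints. GI50 = concentration required for 50% inhibition of growth.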 Activity calls are given as the source filed them. Cut-off read from the data, not from the text of the source: active = GI50 up to about 1.1 µM and inactive = higher.

How the values were obtained:
Assay in all cases: NCI tumour cell line growth inhibition, 48 h
UO-31 = tested on: UO-31
PC-3 = tested on: PC-3
HOP-62 = tested on: HOP-62
UACC-257 = tested on: UACC-257
U-251 = tested on: U-251
Malme-3M = tested on: Malme-3M
UACC-62 = tested on: UACC-62
NCI-H522 = tested on: NCI-H522
TK-10 = tested on: TK-10
HT-29 = tested on: HT-29
NCI-H23 = tested on: NCI-H23
RXF 393 = tested on: RXF 393
SF-295 = tested on: SF-295
SN12C = tested on: SN12C
ACHN = tested on: ACHN
DU-145 = tested on: DU-145
M14 = tested on: M14
HCT-15 = tested on: HCT-15
HCT-116 = tested on: HCT-116
NCI-H226 = tested on: NCI-H226

Row | SMILES | GI50 (UO-31) | GI50 (PC-3) | GI50 (HOP-62) | GI50 (UACC-257) | GI50 (U-251) | GI50 (Malme-3M) | GI50 (UACC-62) | GI50 (NCI-H522) | GI50 (TK-10) | GI50 (HT-29) | GI50 (NCI-H23) | GI50 (RXF 393) | GI50 (SF-295) | GI50 (SN12C) | GI50 (ACHN) | GI50 (DU-145) | GI50 (M14) | GI50 (HCT-15) | GI50 (HCT-116) | GI50 (NCI-H226)
1 | CCN(C)c1nc(N(C)CC)c2nc(N(C)CC)nc(N(C)CC)c2n1 | > 100 µM (inactive) | > 100 µM (inactive) | > 100 µM (inactive) | > 100 µM (inactive) | > 100 µM (inactive) | > 100 µM (inactive) | > 100 µM (inactive) | > 100 µM (inactive) | > 100 µM (inactive) | > 100 µM (inactive) | > 100 µM (inactive) | > 100 µM (inactive) | > 100 µM (inactive) | > 100 µM (inactive) | > 100 µM (inactive) | > 100 µM (inactive) | > 100 µM (inactive) | > 100 µM | > 100 µM (inactive) | 
2 | c1ccc(-c2c(-c3cccs3)[nH]c(-c3cccs3)c2-c2ccccn2)nc1 | 19.2 µM (inactive) | 10.6 µM (inactive) |  | 22 µM (inactive) | 20.2 µM (inactive) | 25.5 µM (inactive) | 18 µM (inactive) |  | 40.2 µM (inactive) | 14.2 µM (inactive) | 26.2 µM (inactive) | 20.5 µM (inactive) | 20.2 µM (inactive) | 21.1 µM (inactive) | 30.5 µM (inactive) | 0.27 µM (active) | 20.2 µM (inactive) | 15.1 µM | 0.127 µM (active) | 23 µM (inactive)
3 | c1ccc2cc3c(cc2c1)nc1ccccn13 | > 100 µM (inactive) | > 100 µM (inactive) | > 100 µM (inactive) | > 100 µM (inactive) | > 100 µM (inactive) | > 100 µM (inactive) | > 100 µM (inactive) |  | > 100 µM (inactive) |  | > 100 µM (inactive) | > 100 µM (inactive) | > 100 µM (inactive) | > 100 µM (inactive) | > 100 µM (inactive) | > 100 µM (inactive) | > 100 µM (inactive) | > 100 µM | 96.2 µM (inactive) | > 100 µM (inactive)
4 | COC1O[C@H]2[C@H]3[C@@H]1[C@@H](OS(=O)(=O)c1ccc(C)cc1)C(=O)N3C[C@H]2O (stereo not given in full) | > 100 µM (inactive) | 81.8 µM (inactive) | > 100 µM (inactive) | > 100 µM (inactive) | > 100 µM (inactive) | > 100 µM (inactive) | > 100 µM (inactive) |  | > 100 µM (inactive) | > 100 µM (inactive) | > 100 µM (inactive) | 17.9 µM (inactive) | > 100 µM (inactive) |  | > 100 µM (inactive) | > 100 µM (inactive) | > 100 µM (inactive) | > 100 µM | > 100 µM (inactive) | > 100 µM (inactive)
5 | C1CCSCCCCSCCCCSCCCCSC1 | > 100 µM (inactive) | > 100 µM (inactive) | > 100 µM (inactive) | > 100 µM (inactive) | > 100 µM (inactive) |  | > 100 µM (inactive) | > 100 µM (inactive) | > 100 µM (inactive) | > 100 µM (inactive) | > 100 µM (inactive) | > 100 µM (inactive) | > 100 µM (inactive) | > 100 µM (inactive) | > 100 µM (inactive) | > 100 µM (inactive) | > 100 µM (inactive) | > 100 µM | > 100 µM (inactive) | > 100 µM (inactive)
6 | CCc1nnc(CC)n1N1C(=O)CCC1=O | > 100 µM (inactive) | > 100 µM (inactive) | > 100 µM (inactive) | > 100 µM (inactive) | > 100 µM (inactive) |  | > 100 µM (inactive) | > 100 µM (inactive) | > 100 µM (inactive) | > 100 µM (inactive) | > 100 µM (inactive) | > 100 µM (inactive) | > 100 µM (inactive) | > 100 µM (inactive) | > 100 µM (inactive) | > 100 µM (inactive) | > 100 µM (inactive) | > 100 µM | > 100 µM (inactive) | 
7 | C[C@@H](NC(=O)[C@@H]1C[C@]1(C)CO)c1cccc2ccccc12 | > 100 µM (inactive) | > 100 µM (inactive) | > 100 µM (inactive) | > 100 µM (inactive) | > 100 µM (inactive) | > 100 µM (inactive) | > 100 µM (inactive) |  | > 100 µM (inactive) | > 100 µM (inactive) | > 100 µM (inactive) | > 100 µM (inactive) | > 100 µM (inactive) | > 100 µM (inactive) | > 100 µM (inactive) | > 100 µM (inactive) | > 100 µM (inactive) | > 100 µM | > 100 µM (inactive) | > 100 µM (inactive)
8 | CCOC(=O)/C=C/CCO[Si](C)(C)C(C)(C)C | > 100 µM (inactive) | > 100 µM (inactive) | > 100 µM (inactive) | > 100 µM (inactive) | > 100 µM (inactive) | > 100 µM (inactive) | > 100 µM (inactive) | > 100 µM (inactive) | > 100 µM (inactive) | > 100 µM (inactive) | > 100 µM (inactive) | > 100 µM (inactive) | > 100 µM (inactive) | > 100 µM (inactive) | > 100 µM (inactive) | > 100 µM (inactive) |  | > 100 µM | > 100 µM (inactive) | > 100 µM (inactive)
9 | [N-]=[N+]=Nc1ccc2c(c1)Sc1ccccc1N2CCCCN1CCN(Cc2ccc(C(=O)c3ccc(CSCC(N)C(=O)O)cc3)cc2)CC1 (stereo not given) | 37.4 µM (inactive) | 43.5 µM (inactive) | 23.9 µM (inactive) | 22.8 µM (inactive) | 11.1 µM (inactive) | > 10 µM (inactive) | 11.3 µM (inactive) | 12.5 µM (inactive) | 56.2 µM (inactive) | 14 µM (inactive) | 31.3 µM (inactive) | 46.7 µM (inactive) | 18.2 µM (inactive) | 31.3 µM (inactive) | 31.6 µM (inactive) | 21.3 µM (inactive) |  | 14.2 µM | 15.2 µM (inactive) | 13.2 µM (inactive)
10 | C/C(=C\c1ccccn1)c1ccccn1 | > 100 µM (inactive) | > 100 µM (inactive) | > 100 µM (inactive) | > 100 µM (inactive) | > 100 µM (inactive) | > 100 µM (inactive) | > 100 µM (inactive) | > 100 µM (inactive) | > 100 µM (inactive) | > 100 µM (inactive) | > 100 µM (inactive) | > 100 µM (inactive) | > 100 µM (inactive) |  | > 100 µM (inactive) | > 100 µM (inactive) | > 100 µM (inactive) | > 100 µM | > 100 µM (inactive) | 
11 | O=[N+]([O-])c1ccc2c(c1)=[N+]([O-])C1(CCCCC1)[N+]=2[O-] | 19.6 µM (inactive) | 17.5 µM (inactive) | 17.1 µM (inactive) | 15.1 µM (inactive) | 17.2 µM (inactive) | 15.2 µM (inactive) | 10.4 µM (inactive) |  | 13.3 µM (inactive) | 19.5 µM (inactive) | 22.9 µM (inactive) | 18.5 µM (inactive) | 19.8 µM (inactive) | 17.5 µM (inactive) | 19.6 µM (inactive) | 18.9 µM (inactive) | 15.6 µM (inactive) | 18.2 µM | 17.1 µM (inactive) | 21.1 µM (inactive)
12 | CC1=CC(C)(C)NN1C1=NS(=O)(=O)c2ccccc2N1C | 78.3 µM (inactive) | > 100 µM (inactive) | > 100 µM (inactive) | > 100 µM (inactive) | > 100 µM (inactive) |  | > 100 µM (inactive) | > 100 µM (inactive) | > 100 µM (inactive) | > 100 µM (inactive) | > 100 µM (inactive) | > 100 µM (inactive) | > 100 µM (inactive) | > 100 µM (inactive) | > 100 µM (inactive) | > 100 µM (inactive) | > 100 µM (inactive) | 89.9 µM | > 100 µM (inactive) | > 100 µM (inactive)
13 | Cc1cc(Br)cc(C)c1NC(=O)C(=O)C1C(=O)C(CC2C(=O)c3ccccc3C2=O)C(=O)CC1(C)C (stereo not given) | 16.8 µM (inactive) | 60.7 µM (inactive) | > 100 µM (inactive) | > 100 µM (inactive) | > 100 µM (inactive) |  | 90.2 µM (inactive) | 44.5 µM (inactive) | > 100 µM (inactive) | > 100 µM (inactive) | 84.1 µM (inactive) | 3.66 µM (inactive) | > 100 µM (inactive) | > 100 µM (inactive) | > 100 µM (inactive) | > 100 µM (inactive) | > 100 µM (inactive) | 63.5 µM | 83.2 µM (inactive) | 67.5 µM (inactive)
14 | O=C1/C(=C/c2cc3c(=O)c4ccccc4sc3s2)NC(=S)N1c1ccccc1 | > 100 µM (inactive) | > 100 µM (inactive) | 5.01 µM (inactive) | > 100 µM (inactive) | 21 µM (inactive) | > 100 µM (inactive) | > 100 µM (inactive) | > 100 µM (inactive) | > 100 µM (inactive) | > 100 µM (inactive) | > 100 µM (inactive) | 15.4 µM (inactive) | 66.4 µM (inactive) | > 100 µM (inactive) | > 100 µM (inactive) | > 100 µM (inactive) |  | > 100 µM | 40.4 µM (inactive) | > 100 µM (inactive)
15 | Cc1cc(O)c2c(c1)C(=O)C=C(Br)C2=O | 15.5 µM (inactive) | 17.8 µM (inactive) | > 63.5 µM (inactive) | 13.1 µM (inactive) | 29.7 µM (inactive) | 7.69 µM (inactive) | 16.6 µM (inactive) | 2.94 µM (inactive) | 16.4 µM (inactive) | 21.1 µM (inactive) | 17.1 µM (inactive) |  | 36 µM (inactive) | 16.4 µM (inactive) | 15.6 µM (inactive) | 12.4 µM (inactive) | 15.8 µM (inactive) | 10.2 µM | 16.6 µM (inactive) | 19.2 µM (inactive)
